Experimental data published in patent US20260125382A1, “COMPOUNDS FOR INHIBITING OR DEGRADING CDK2 AND/OR CDK9 AND MEDICINAL USE THEREOF” (KOREA RESEARCH INSTITUTE OF CHEMICAL TECHNOLOGY, priority 2022, published 2026).

Assays:
CDK2 = target: T1, CDK2 (Homo sapiens, UniProt P24941); experiment: CDK protein degradation activity (Western blotting), CDK2; format: cell-based; conditions: MDA-MB-231 cells, 16 hours, Western blot
T1 construct: endogenous in cells; host or cells: MDA-MB-231
Outline: (§1)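 Breast cancer line MDA-MB-231, 16 h compound treatment (100 nM–10 μM final, three doses). Immunoblot quantification of CDK2/CDK9 versus tubulin, normalized to DMSO control.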

CDK9 = target: T2, CDK9 (Homo sapiens, UniProt P50750); experiment: CDK protein degradation activity (Western blotting), CDK9; format: cell-based; conditions: MDA-MB-231 cells, 16 hours, Western blot
T2 construct: endogenous in cells; host or cells: MDA-MB-231
Outline: as §1

T2 sequence (P50750 whole entry): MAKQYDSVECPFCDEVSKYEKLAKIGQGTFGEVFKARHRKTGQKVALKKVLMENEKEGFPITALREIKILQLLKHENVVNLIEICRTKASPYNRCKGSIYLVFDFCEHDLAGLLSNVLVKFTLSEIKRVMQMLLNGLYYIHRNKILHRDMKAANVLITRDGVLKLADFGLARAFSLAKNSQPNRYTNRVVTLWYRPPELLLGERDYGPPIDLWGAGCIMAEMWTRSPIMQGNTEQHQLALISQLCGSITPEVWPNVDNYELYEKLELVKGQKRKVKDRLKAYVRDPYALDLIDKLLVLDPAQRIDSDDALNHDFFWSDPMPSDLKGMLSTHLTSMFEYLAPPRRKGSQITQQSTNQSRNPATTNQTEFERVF

## Cc1cccc(C(=O)NC2CC(n3cnc4c(NCc5cccc(N6CCN(c7cccc8c7C(=O)N([C@H]7CCC(=O)NC7=O)C8=O)CC6)c5)ncnc43)C2)n1 (stereo partly drawn) [Compound 126, N-((1s,3s)-3-(6-((3-(4-(2-(2,6-dioxopiperidin-3-yl)-1,3-dioxoisoindolin-4-yl)piperazin-1-yl)benzyl)amino)-9H-purin-9-yl)cyclobutyl)-6-methylpicolinamide]
CDK2
  Enzyme degradation CDK2 (% remaining) @ 0.1 μM: 80%
  Enzyme degradation CDK2 (% remaining) @ 1 μM: 70%
  Enzyme degradation CDK2 (% remaining) @ 10 μM: 70%
CDK9
  Enzyme degradation CDK9 (% remaining) @ 0.1 μM: 80%
  Enzyme degradation CDK9 (% remaining) @ 1 μM: 70%
  Enzyme degradation CDK9 (% remaining) @ 10 μM: 70%

## Cc1cccc(C(=O)NC2CC(n3cnc4c(NCc5cccc(N6CCN(C(=O)COc7cccc8c7C(=O)N([C@H]7CCC(=O)NC7=O)C8=O)CC6)c5)ncnc43)C2)n1 (stereo partly drawn) [Compound 128, N-((1s,3s)-3-(6-((3-(4-(2-((2-(2,6-dioxopiperidin-3-yl)-1,3-dioxoisoindolin-4-yl)oxy)acetyl)piperazin-1-yl)benzyl)amino)-9H-purin-9-yl)cyclobutyl)-6-methylpicolinamide]
CDK2
  Enzyme degradation CDK2 (% remaining) @ 0.1 μM: 90%
  Enzyme degradation CDK2 (% remaining) @ 1 μM: 50%
  Enzyme degradation CDK2 (% remaining) @ 10 μM: 100%
CDK9
  Enzyme degradation CDK9 (% remaining) @ 0.1 μM: 90%
  Enzyme degradation CDK9 (% remaining) @ 1 μM: 60%
  Enzyme degradation CDK9 (% remaining) @ 10 μM: 100%

## Cc1cccc(C(=O)N[C@H]2C[C@@H](n3cnc4c(NCc5cccc(N6CCN(C(=O)CNc7cccc8c7C(=O)N(C7CCC(=O)NC7=O)C8=O)CC6)c5)ncnc43)C2)n1 (stereo partly drawn) [Compound 130, N-((1s,3s)-3-(6-((3-(4-((2-(2,6-dioxopiperidin-3-yl)-1,3-dioxoisoindolin-4-yl)glycyl)piperazin-1-yl)benzyl)amino)-9H-purin-9-yl)cyclobutyl)-6-methylpicolinamide]
CDK2
  Enzyme degradation CDK2 (% remaining) @ 0.1 μM: 60%
  Enzyme degradation CDK2 (% remaining) @ 1 μM: 40%
  Enzyme degradation CDK2 (% remaining) @ 10 μM: 10%
CDK9
  Enzyme degradation CDK9 (% remaining) @ 0.1 μM: 100%
  Enzyme degradation CDK9 (% remaining) @ 1 μM: 40%
  Enzyme degradation CDK9 (% remaining) @ 10 μM: 20%

## Cc1cccc(C(=O)N[C@H]2C[C@@H](n3cnc4c(NCc5cccc(N6CCN(C(=O)CNc7ccc8c(c7)C(=O)N([C@H]7CCC(=O)NC7=O)C8=O)CC6)c5)ncnc43)C2)n1 [Compound 131, N-((1s,3s)-3-(6-((3-(4-((2-(2,6-dioxopiperidin-3-yl)-1,3-dioxoisoindolin-5-yl)glycyl)piperazin-1-yl)benzyl)amino)-9H-purin-9-yl)cyclobutyl)-6-methylpicolinamide]
CDK2
  Enzyme degradation CDK2 (% remaining) @ 0.1 μM: 80%
  Enzyme degradation CDK2 (% remaining) @ 1 μM: 100%
  Enzyme degradation CDK2 (% remaining) @ 10 μM: 100%
CDK9
  Enzyme degradation CDK9 (% remaining) @ 0.1 μM: 60/60/60%
  Enzyme degradation CDK9 (% remaining) @ 1 μM: 60/60/60%
  Enzyme degradation CDK9 (% remaining) @ 10 μM: 60/60/60%

## Cc1cccc(C(=O)N[C@H]2C[C@@H](n3cnc4c(NCc5cccc(N6CCN(CC7CCN(C(=O)COc8cccc9c8C(=O)N(C8CCC(=O)NC8=O)C9=O)CC7)CC6)c5)ncnc43)C2)n1 (stereo partly drawn) [Compound 132, N-((1s,3s)-3-(6-((3-(4-((1-(2-((2-(2,6-dioxopiperidin-3-yl)-1,3-dioxoisoindolin-4-yl)oxy)acetyl)piperidin-4-yl)methyl)piperazin-1-yl)benzyl)amino)-9H-purin-9-yl)cyclobutyl)-6-methylpicolinamide]
CDK2
  Enzyme degradation CDK2 (% remaining) @ 0.1 μM: 60%
  Enzyme degradation CDK2 (% remaining) @ 1 μM: 40%
  Enzyme degradation CDK2 (% remaining) @ 10 μM: 40%
CDK9
  Enzyme degradation CDK9 (% remaining) @ 0.1 μM: 70%
  Enzyme degradation CDK9 (% remaining) @ 1 μM: 10%
  Enzyme degradation CDK9 (% remaining) @ 10 μM: 0%

## Cc1cccc(C(=O)NC2CC(n3cnc4c(NCc5cccc(N6CCN(CC7CCN(C(=O)COc8ccc9c(c8)C(=O)N([C@H]8CCC(=O)NC8=O)C9=O)CC7)CC6)c5)ncnc43)C2)n1 (stereo partly drawn) [Compound 133, N-((1s,3s)-3-(6-((3-(4-((1-(2-((2-(2,6-dioxopiperidin-3-yl)-1,3-dioxoisoindolin-5-yl)oxy)acetyl)piperidin-4-yl)methyl)piperazin-1-yl)benzyl)amino)-9H-purin-9-yl)cyclobutyl)-6-methylpicolinamide]
CDK2
  Enzyme degradation CDK2 (% remaining) @ 0.1 μM: 90%
  Enzyme degradation CDK2 (% remaining) @ 1 μM: 70%
  Enzyme degradation CDK2 (% remaining) @ 10 μM: 80%
CDK9
  Enzyme degradation CDK9 (% remaining) @ 0.1 μM: 80%
  Enzyme degradation CDK9 (% remaining) @ 1 μM: 0%
  Enzyme degradation CDK9 (% remaining) @ 10 μM: 0%

## Cc1cccc(C(=O)NC2CC(n3cnc4c(NCc5cccc(N6CCN(CC7CCN(C(=O)CNc8cccc9c8C(=O)N([C@H]8CCC(=O)NC8=O)C9=O)CC7)CC6)c5)ncnc43)C2)n1 (stereo partly drawn) [Compound 134, N-((1s,3s)-3-(6-((3-(4-((1-((2-(2,6-dioxopiperidin-3-yl)-1,3-dioxoisoindolin-4-yl)glycyl)piperidin-4-yl)methyl)piperazin-1-yl)benzyl)amino)-9H-purin-9-yl)cyclobutyl)-6-methylpicolinamide]
CDK2
  Enzyme degradation CDK2 (% remaining) @ 0.1 μM: 60%
  Enzyme degradation CDK2 (% remaining) @ 1 μM: 50%
  Enzyme degradation CDK2 (% remaining) @ 10 μM: 50%
CDK9
  Enzyme degradation CDK9 (% remaining) @ 0.1 μM: 0/0/0%
  Enzyme degradation CDK9 (% remaining) @ 1 μM: 0/0/0%
  Enzyme degradation CDK9 (% remaining) @ 10 μM: 0/0/0%

## Cc1cccc(C(=O)NC2CC(n3cnc4c(NCc5cccc(N6CCN(CC7CCN(C(=O)CNc8ccc9c(c8)C(=O)N([C@H]8CCC(=O)NC8=O)C9=O)CC7)CC6)c5)ncnc43)C2)n1 (stereo partly drawn) [Compound 135, N-((1s,3s)-3-(6-((3-(4-((1-((2-(2,6-dioxopiperidin-3-yl)-1,3-dioxoisoindolin-5-yl)glycyl)piperidin-4-yl)methyl)piperazin-1-yl)benzyl)amino)-9H-purin-9-yl)cyclobutyl)-6-methylpicolinamide]
CDK2
  Enzyme degradation CDK2 (% remaining) @ 0.1 μM: 70%
  Enzyme degradation CDK2 (% remaining) @ 1 μM: 60%
  Enzyme degradation CDK2 (% remaining) @ 10 μM: 40%
CDK9
  Enzyme degradation CDK9 (% remaining) @ 0.1 μM: 0/0/0%
  Enzyme degradation CDK9 (% remaining) @ 1 μM: 0/0/0%
  Enzyme degradation CDK9 (% remaining) @ 10 μM: 0/0/0%

## Cc1cccc(C(=O)N[C@H]2C[C@@H](n3cnc4c(NCc5cccc(N6CCN(CC7CCN(c8cccc9c8C(=O)N([C@H]8CCC(=O)NC8=O)C9=O)CC7)CC6)c5)ncnc43)C2)n1 [Compound 136, N-((1s,3s)-3-(6-((3-(4-((1-(2-(2,6-dioxopiperidin-3-yl)-1,3-dioxoisoindolin-4-yl)piperidin-4-yl)methyl)piperazin-1-yl)benzyl)amino)-9H-purin-9-yl)cyclobutyl)-6-methylpicolinamide]
CDK2
  Enzyme degradation CDK2 (% remaining) @ 0.1 μM: 100%
  Enzyme degradation CDK2 (% remaining) @ 1 μM: 100%
  Enzyme degradation CDK2 (% remaining) @ 10 μM: 60%
CDK9
  Enzyme degradation CDK9 (% remaining) @ 0.1 μM: 10%
  Enzyme degradation CDK9 (% remaining) @ 1 μM: 70%
  Enzyme degradation CDK9 (% remaining) @ 10 μM: 40%
